In PubChem BioAssay (NCI):
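Protocol summary: plate cells (96-well), add compound at 5 concentrations, incubate 48 h, interpolate endpoints linearly. GI50 marks 50% less growth. At the TGI there is no net growth.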

Tests used:
Test in all cases: DTP human tumour cell line panel, 48 h
[1] = system: 786-0 renal
[2] = system: A498 renal
[3] = system: A549 NSCLC
[4] = system: ACHN renal
[5] = system: BT-549 breast
[6] = system: CAKI-1 renal
[7] = system: CCRF-CEM leukemia
[8] = system: COLO 205 colon
[9] = system: DU-145 prostate
[10] = system: EKVX NSCLC
[11] = system: HCC-2998 colon
[12] = system: HCT-116 colon
[13] = system: HCT-15 colon
[14] = system: HL-60(TB) leukemia
[15] = system: HOP-62 NSCLC
[16] = system: HOP-92 NSCLC
[17] = system: HS 578T breast
[18] = system: HT29 colon
[19] = system: IGROV1 ovarian
[20] = system: K-562 leukemia
[21] = system: KM12 colon
[22] = system: LOX IMVI melanoma
[23] = system: M14 melanoma
[24] = system: MALME-3M melanoma
[25] = system: MCF7 breast
[26] = system: MDA-MB-231 breast
[27] = system: MDA-MB-435
[28] = system: MOLT-4 leukemia
[29] = system: NCI-H226 lung
[30] = system: NCI-H23 lung
[31] = system: NCI-H460 lung
[32] = system: NCI-H522 lung
[33] = system: NCI/ADR-RES ovarian
[34] = system: OVCAR-3 ovarian
[35] = system: OVCAR-4 ovarian
[36] = system: OVCAR-5 ovarian
[37] = system: OVCAR-8 ovarian
[38] = system: PC-3 prostate
[39] = system: RPMI-8226 leukemia
[40] = system: RXF 393 renal
[41] = system: SF-268 CNS
[42] = system: SF-295 CNS
[43] = system: SF-539 CNS
[44] = system: SK-MEL-2 melanoma
[45] = system: SK-MEL-28 melanoma
[46] = system: SK-MEL-5 melanoma
[47] = system: SK-OV-3 ovarian
[48] = system: SN12C renal
[49] = system: SNB-19 CNS
[50] = system: SNB-75 CNS
[51] = system: SR leukemia
[52] = system: SW-620 colon
[53] = system: T-47D breast
[54] = system: TK-10 renal
[55] = system: U251 CNS
[56] = system: UACC-257 melanoma
[57] = system: UACC-62 melanoma
[58] = system: UO-31 renal

SMILES: O=C1/C(=C/c2ccc(O)c(O)c2)COc2ccc(-c3ccccc3)cc21
- GI50 [1]: 1940 nM
- TGI [1]: 5.55 µM
- GI50 [2]: 2200 nM
- TGI [2]: 7.71 µM
- GI50 [3]: 3.16 µM
- TGI [3]: 18.1 µM
- GI50 [4]: 1530 nM
- TGI [4]: 3.22 µM
- GI50 [5]: 2370 nM
- TGI [5]: 10.6 µM
- GI50 [6]: 3.66 µM
- TGI [6]: 33.2 µM
- GI50 [7]: 329 nM
- GI50 [8]: 732 nM
- TGI [8]: 2150 nM
- GI50 [9]: 1770 nM
- TGI [9]: 4.48 µM
- GI50 [10]: 5.39 µM
- TGI [10]: 18.1 µM
- GI50 [11]: 1490 nM
- TGI [11]: 2980 nM
- GI50 [12]: 1230 nM
- TGI [12]: 2650 nM
- GI50 [13]: 697 nM
- TGI [13]: 2240 nM
- GI50 [14]: 435 nM
- TGI [14]: 4.47 µM
- GI50 [15]: 3.55 µM
- TGI [15]: 11.6 µM
- GI50 [16]: 1740 nM
- TGI [16]: 8.59 µM
- GI50 [17]: 3.21 µM
- TGI [17]: 13.9 µM
- GI50 [18]: 1500 nM
- TGI [18]: 3.16 µM
- GI50 [19]: 1390 nM
- TGI [19]: 6.41 µM
- GI50 [20]: 1850 nM
- TGI [20]: 8.31 µM
- GI50 [21]: 1420 nM
- TGI [21]: 3.39 µM
- GI50 [22]: 1430 nM
- TGI [22]: 2840 nM
- GI50 [23]: 2020 nM
- TGI [23]: 5.28 µM
- GI50 [24]: 1700 nM
- TGI [24]: 5.55 µM
- GI50 [25]: 666 nM
- TGI [25]: 5.06 µM
- GI50 [26]: 2260 nM
- TGI [26]: 8.47 µM
- GI50 [27]: 1170 nM
- TGI [27]: 3.48 µM
- GI50 [28]: 531 nM
- TGI [28]: 4.73 µM
- GI50 [29]: 4.15 µM
- TGI [29]: 32.8 µM
- GI50 [30]: 2280 nM
- TGI [30]: 10.9 µM
- GI50 [31]: 1990 nM
- TGI [31]: 5.67 µM
- GI50 [32]: 334 nM
- TGI [32]: 1160 nM
- GI50 [33]: 2240 nM
- TGI [33]: > 26.8 µM
- GI50 [34]: 874 nM
- TGI [34]: 3.48 µM
- GI50 [35]: 2200 nM
- TGI [35]: 10.2 µM
- GI50 [36]: 3.71 µM
- TGI [36]: 16.1 µM
- GI50 [37]: 3.29 µM
- TGI [37]: 22 µM
- GI50 [38]: 1800 nM
- TGI [38]: 10.7 µM
- GI50 [39]: 187 nM
- TGI [39]: 588 nM
- GI50 [40]: 1710 nM
- TGI [40]: 3.86 µM
- GI50 [41]: 2110 nM
- TGI [41]: 7.33 µM
- GI50 [42]: 2840 nM
- TGI [42]: 13 µM
- GI50 [43]: 1910 nM
- TGI [43]: 3.89 µM
- GI50 [44]: 3.64 µM
- TGI [44]: 10.7 µM
- GI50 [45]: 1600 nM
- TGI [45]: 3.07 µM
- GI50 [46]: 1570 nM
- TGI [46]: 3.77 µM
- GI50 [47]: 4.77 µM
- TGI [47]: 37.7 µM
- GI50 [48]: 2470 nM
- TGI [48]: 10.6 µM
- GI50 [49]: 3.51 µM
- TGI [49]: 14.7 µM
- GI50 [50]: 2980 nM
- TGI [50]: 11.6 µM
- GI50 [51]: 616 nM
- GI50 [52]: 875 nM
- TGI [52]: 2460 nM
- GI50 [53]: 959 nM
- TGI [53]: 3.61 µM
- GI50 [54]: 1730 nM
- TGI [54]: 6.91 µM
- GI50 [55]: 1450 nM
- TGI [55]: 3.38 µM
- GI50 [56]: 3.89 µM
- TGI [56]: 16.9 µM
- GI50 [57]: 2010 nM
- TGI [57]: 5.78 µM
- GI50 [58]: 1220 nM
- TGI [58]: 2930 nM
